# Activity calls are given as the source filed them. The rule behind the calls is not given here.
# Experiments:
# [1] = target: T1, Cytochrome P450 1A2 (Homo sapiens, UniProt P05177); experiment: Inhibition of CYP1A2 in human hepatocytes upto 50 uM incubated for 72 hrs; assay type: ADME, cell-based, Hepatocyte
# T1 sequence (P05177 whole entry): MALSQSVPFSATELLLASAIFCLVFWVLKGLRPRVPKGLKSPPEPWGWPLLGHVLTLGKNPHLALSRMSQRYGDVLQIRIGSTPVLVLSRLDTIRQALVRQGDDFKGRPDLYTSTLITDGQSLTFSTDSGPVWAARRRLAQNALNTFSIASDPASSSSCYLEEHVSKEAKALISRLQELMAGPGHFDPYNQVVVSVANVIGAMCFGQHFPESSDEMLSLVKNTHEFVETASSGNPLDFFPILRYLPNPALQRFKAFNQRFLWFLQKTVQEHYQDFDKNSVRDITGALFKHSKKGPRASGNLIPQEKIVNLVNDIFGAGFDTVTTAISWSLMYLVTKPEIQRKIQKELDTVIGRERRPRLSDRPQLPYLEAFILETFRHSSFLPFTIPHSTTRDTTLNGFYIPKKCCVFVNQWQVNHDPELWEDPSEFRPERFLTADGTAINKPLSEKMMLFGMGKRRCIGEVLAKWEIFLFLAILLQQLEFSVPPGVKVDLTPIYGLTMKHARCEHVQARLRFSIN
# [2] = Half life in rat at 1 mg/kg, iv; assay type: ADME, organism-based; conditions: in vivo
# [3] = Cmax in nonhuman primate at 10 mg/kg, po; assay type: ADME, organism-based; set-up: route oral, dose 10 mg/kg; conditions: primates, in vivo
# [4] = Clearance in rat blood relative to hepatic blood flow; assay type: ADME, tissue-based
# [5] = Clearance in dog blood relative to hepatic blood flow; assay type: ADME, tissue-based, Canis lupus familiaris
# [6] = Toxicity in guinea pig assessed as effect on inotropy and lusitropy in heart by Langendorff test; assay type: tissue-based, Cavia porcellus; conditions: in vivo
# [7] = Toxicity in rat assessed as effect on cardiac compliance by telemetry; conditions: in vivo
# [8] = tested on: Rattus norvegicus; experiment: In vivo modulation of gamma secretase in rat assessed as reduction in Abeta37 levels in brain by measuring AUC(0 to 24 hrs) at 30 mg/kg, po by ELISA; assay type: functional; set-up: scale not given: the % may be the effect or the level left
# [9] = In vivo modulation of gamma secretase in nonhuman primate assessed as reduction in Abeta40 levels in CSF by measuring AUC(0 to 48 hrs) at 30 mg/kg, po by ELISA; assay type: functional, Primates, Cerebrospinal fluid; set-up: scale not given: the % may be the effect or the level left
# [10] = Clearance in rat at 1 mg/kg, iv; assay type: ADME, organism-based; conditions: in vivo
# [11] = tested on: Rattus norvegicus; experiment: In vivo modulation of gamma secretase in rat assessed as reduction in Abeta40 levels in CSF at 30 mg/kg, po measured at 9 hrs by ELISA relative to control; assay type: functional, Cerebrospinal fluid; set-up: scale not given: the % may be the effect or the level left
# [12] = tested on: Rattus norvegicus; experiment: In vivo modulation of gamma secretase in rat assessed as reduction in Abeta40 levels in CSF by measuring AUC(0 to 24 hrs) at 30 mg/kg, po by ELISA; assay type: functional, Cerebrospinal fluid; set-up: scale not given: the % may be the effect or the level left
# [13] = Toxicity in guinea pig assessed as reduction in heart flow rate by Langendorff test; assay type: tissue-based, Cavia porcellus; conditions: in vivo
# [14] = target: T1, Cytochrome P450 1A2; experiment: Inhibition of CYP1A2 (unknown origin); assay type: ADME
# [15] = In vivo modulation of gamma secretase in nonhuman primate assessed as reduction in Abeta42 levels in CSF at 30 mg/kg, po measured after 12 hrs by ELISA relative to control; assay type: functional, Primates, Cerebrospinal fluid; set-up: scale not given: the % may be the effect or the level left
# [16] = tested on: Rattus norvegicus; experiment: In vivo modulation of gamma secretase in rat assessed as reduction in Abeta42 levels in CSF at 30 mg/kg, po measured at 9 hrs by ELISA relative to control; assay type: functional, Cerebrospinal fluid; set-up: scale not given: the % may be the effect or the level left
# [17] = Toxicity in guinea pig assessed as effect on sino-atrial node function in heart by Langendorff test; assay type: tissue-based, Cavia porcellus; conditions: in vivo
# [18] = Genotoxicity in Salmonella typhimurium by mini-Ames test; assay type: toxicity; conditions: salmonella enterica subsp. enterica serovar typhimurium
# [19] = Drug metabolism in monkey hepatocytes assessed as mono and di-oxidative metabolites formation after 4 hrs; assay type: ADME, cell-based, Macaca mulatta, Hepatocyte; conditions: rhesus monkey
# [20] = target: Cytochrome P450 2C19 (Homo sapiens, UniProt P33261); experiment: Inhibition of CYP2C19 (unknown origin); assay type: ADME
# Chain of Cytochrome P450 2C19 (P33261 whole entry): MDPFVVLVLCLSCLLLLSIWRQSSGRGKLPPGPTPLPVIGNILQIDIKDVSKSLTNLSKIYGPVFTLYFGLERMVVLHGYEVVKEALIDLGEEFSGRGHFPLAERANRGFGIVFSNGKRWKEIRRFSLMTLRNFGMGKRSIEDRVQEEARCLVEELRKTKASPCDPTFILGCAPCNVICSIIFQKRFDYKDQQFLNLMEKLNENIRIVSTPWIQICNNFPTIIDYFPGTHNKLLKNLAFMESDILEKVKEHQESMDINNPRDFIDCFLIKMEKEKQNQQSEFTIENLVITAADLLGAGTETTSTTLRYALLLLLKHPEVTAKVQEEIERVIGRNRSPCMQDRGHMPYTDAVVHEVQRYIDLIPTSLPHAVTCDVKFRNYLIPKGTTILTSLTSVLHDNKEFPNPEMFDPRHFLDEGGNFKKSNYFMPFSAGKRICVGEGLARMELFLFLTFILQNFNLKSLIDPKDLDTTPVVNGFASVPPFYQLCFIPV
# [21] = Toxicity in rat assessed as effect on left ventricular filling pressures by telemetry; conditions: in vivo
# [22] = target: Gamma-secretase; experiment: Inhibition of gamma secretase (unknown origin) assessed as reduction in notch cleavage; assay type: functional, Homo sapiens
# [23] = Toxicity in guinea pig assessed as effect on ion channel function in heart by Langendorff test; assay type: tissue-based, Cavia porcellus; conditions: in vivo
# [24] = species on record: Homo sapiens; experiment: Inhibition of sodium channel (unknown origin) at 10 uM relative to control
# [25] = tested on: Rattus norvegicus; experiment: In vivo modulation of gamma secretase in rat assessed as reduction in Abeta42 levels in brain by measuring AUC(0 to 24 hrs) at 30 mg/kg, po by ELISA; assay type: functional; set-up: scale not given: the % may be the effect or the level left
# [26] = target: 5-hydroxytryptamine receptor 2B (Homo sapiens) (UniProt P41595); experiment: Inhibition of serotonin 2B receptor (unknown origin) at 10 uM relative to control
# Chain of 5-hydroxytryptamine receptor 2B (Homo sapiens) (P41595 whole entry): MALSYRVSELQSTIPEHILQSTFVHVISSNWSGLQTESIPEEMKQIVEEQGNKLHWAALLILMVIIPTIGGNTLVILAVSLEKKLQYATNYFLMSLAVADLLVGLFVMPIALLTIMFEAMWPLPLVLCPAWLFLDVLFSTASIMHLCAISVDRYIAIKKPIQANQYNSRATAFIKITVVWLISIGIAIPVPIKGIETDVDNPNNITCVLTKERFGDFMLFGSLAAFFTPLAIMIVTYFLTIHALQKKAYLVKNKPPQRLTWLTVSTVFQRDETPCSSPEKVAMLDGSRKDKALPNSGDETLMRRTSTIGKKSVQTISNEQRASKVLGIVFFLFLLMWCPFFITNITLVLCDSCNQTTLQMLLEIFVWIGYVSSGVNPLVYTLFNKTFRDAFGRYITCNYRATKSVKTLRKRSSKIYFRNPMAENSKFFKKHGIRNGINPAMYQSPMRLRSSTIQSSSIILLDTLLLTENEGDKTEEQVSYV
# [27] = Cmax in rat at 3 mg/kg, po; assay type: ADME, organism-based; set-up: route oral, dose 3 mg/kg; conditions: in vivo
# [28] = tested on: Rattus norvegicus; experiment: In vivo modulation of gamma secretase in rat assessed as reduction in Abeta40 levels in brain by measuring AUC(0 to 24 hrs) at 30 mg/kg, po by ELISA; assay type: functional; set-up: scale not given: the % may be the effect or the level left
# [29] = Half life in nonhuman primate at 1 mg/kg, iv; assay type: ADME, organism-based; conditions: primates, in vivo
# [30] = target: D(2) dopamine receptor (Homo sapiens) (UniProt P14416); experiment: Inhibition of dopamine 2-like receptor (unknown origin) at 10 uM relative to control
# Chain of D(2) dopamine receptor (Homo sapiens) (P14416 whole entry): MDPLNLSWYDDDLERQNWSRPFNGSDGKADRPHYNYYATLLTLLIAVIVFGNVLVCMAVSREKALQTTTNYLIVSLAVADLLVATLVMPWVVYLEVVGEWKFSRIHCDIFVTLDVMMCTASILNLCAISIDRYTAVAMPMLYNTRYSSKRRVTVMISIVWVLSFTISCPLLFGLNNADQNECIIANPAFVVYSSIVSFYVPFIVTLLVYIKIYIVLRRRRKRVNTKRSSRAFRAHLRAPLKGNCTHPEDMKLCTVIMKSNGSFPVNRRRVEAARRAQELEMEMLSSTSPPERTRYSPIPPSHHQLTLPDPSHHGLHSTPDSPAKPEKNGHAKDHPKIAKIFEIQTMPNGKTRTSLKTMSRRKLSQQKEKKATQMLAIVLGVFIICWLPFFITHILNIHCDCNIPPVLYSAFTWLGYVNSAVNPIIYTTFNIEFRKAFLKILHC
# [31] = Toxicity in guinea pig assessed as effect on signal conduction function in heart by Langendorff test; assay type: tissue-based, Cavia porcellus; conditions: in vivo
# [32] = target: Prostaglandin G/H synthase 1 (Homo sapiens) (UniProt P23219); experiment: Effect on COX1 activity (unknown origin)
# Chain of Prostaglandin G/H synthase 1 (Homo sapiens) (P23219 whole entry): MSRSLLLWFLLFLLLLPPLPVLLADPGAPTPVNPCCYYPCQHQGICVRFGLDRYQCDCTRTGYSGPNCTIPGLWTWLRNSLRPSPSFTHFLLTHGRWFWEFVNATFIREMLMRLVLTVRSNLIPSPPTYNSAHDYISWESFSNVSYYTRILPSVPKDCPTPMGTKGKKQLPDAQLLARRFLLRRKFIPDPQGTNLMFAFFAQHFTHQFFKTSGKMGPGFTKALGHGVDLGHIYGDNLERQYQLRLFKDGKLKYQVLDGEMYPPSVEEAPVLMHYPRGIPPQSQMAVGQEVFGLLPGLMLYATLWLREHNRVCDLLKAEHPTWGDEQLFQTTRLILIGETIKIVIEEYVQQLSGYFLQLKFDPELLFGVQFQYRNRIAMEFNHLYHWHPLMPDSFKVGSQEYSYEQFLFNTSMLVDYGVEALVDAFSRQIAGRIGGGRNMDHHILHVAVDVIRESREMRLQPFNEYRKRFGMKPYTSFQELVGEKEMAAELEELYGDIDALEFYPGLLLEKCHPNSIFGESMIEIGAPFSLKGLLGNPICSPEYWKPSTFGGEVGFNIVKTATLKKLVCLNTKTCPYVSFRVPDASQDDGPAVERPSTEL
# [33] = Clearance in dog at 0.5 mg/kg, iv; assay type: ADME, organism-based, Canis lupus familiaris; conditions: in vivo
# [34] = Volume of distribution at steady state in rat at 1 mg/kg, iv; assay type: ADME, organism-based; conditions: in vivo, read-out: Vdss
# [35] = tested on: Rattus norvegicus; experiment: In vivo modulation of gamma secretase in rat assessed as reduction in Abeta42 levels in CSF by measuring AUC(0 to 24 hrs) at 30 mg/kg, po by ELISA; assay type: functional, Cerebrospinal fluid; set-up: scale not given: the % may be the effect or the level left
# [36] = target: Cytochrome P450 2C9 (Homo sapiens, UniProt P11712); experiment: Inhibition of CYP2C9 (unknown origin); assay type: ADME
# Chain of Cytochrome P450 2C9 (P11712 whole entry): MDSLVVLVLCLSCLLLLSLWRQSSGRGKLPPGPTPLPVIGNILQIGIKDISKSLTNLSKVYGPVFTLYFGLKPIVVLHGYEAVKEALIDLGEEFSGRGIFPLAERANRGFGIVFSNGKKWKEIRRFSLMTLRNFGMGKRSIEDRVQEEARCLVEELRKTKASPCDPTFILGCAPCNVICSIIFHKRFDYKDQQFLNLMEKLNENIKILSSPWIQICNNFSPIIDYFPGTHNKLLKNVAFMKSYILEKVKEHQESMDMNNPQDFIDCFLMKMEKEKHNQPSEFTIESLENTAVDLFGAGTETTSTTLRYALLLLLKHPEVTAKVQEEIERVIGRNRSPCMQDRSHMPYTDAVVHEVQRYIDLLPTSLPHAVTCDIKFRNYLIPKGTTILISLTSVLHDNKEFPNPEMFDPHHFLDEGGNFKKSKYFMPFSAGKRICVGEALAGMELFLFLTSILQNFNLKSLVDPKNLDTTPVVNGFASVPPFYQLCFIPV
# [37] = Drug metabolism in dog hepatocytes assessed as mono and di-oxidative metabolites formation after 4 hrs; assay type: ADME, cell-based, Canis lupus familiaris, Hepatocyte
# [38] = Bioavailability in rat at 1 mg/kg, iv; assay type: ADME, organism-based; conditions: in vivo
# [39] = Drug metabolism in rat hepatocytes assessed as mono and di-oxidative metabolites formation after 4 hrs; assay type: ADME, cell-based, Hepatocyte
# [40] = Apparent permeability across apical to basolateral side in human Caco2 cells; assay type: ADME, cell-based; conditions: Caco-2
# [41] = Unbound clearance in human hepatocytes; assay type: ADME, cell-based, Hepatocyte
# [42] = Clearance in nonhuman primate blood relative to hepatic blood flow; assay type: ADME, tissue-based; conditions: primates
# [43] = Volume of distribution at steady state in nonhuman primate at 1 mg/kg, iv; assay type: ADME, organism-based; conditions: primates, in vivo, read-out: Vdss
# [44] = Genotoxicity in human peripheral blood lymphocytes by micronucleus assay; assay type: cell-based; conditions: pbl
smiles,measurement,setting,value
COc1nc(C2=NOC(C3CC3)C(c3ccc(Cl)cc3)N2)ccc1-n1cnc(C)c1 (centres undefined),inhibition (INH),[1],Not Active
same,half-life,[2],8.7 h
same,Cmax,[3],6.09 µM
same,CL,[4],< 20%
same,CL,[5],< 20%
same,Activity,[6],Non-Toxic
same,Activity,[7],Non-Toxic
same,Activity,[8],88%
same,Activity,[9],25%
same,clearance,[10],3.1 mL/min/kg
same,Activity,[11],67%
same,Activity,[12],48%
same,Activity,[13],Non-Toxic
same,IC50,[14],≥ 14 µM
same,Activity,[15],92%
same,Activity,[16],91%
same,Activity,[17],Non-Toxic
same,Activity,[18],Non-Toxic
same,Drug metabolism,[19],Metabolite_Detected
same,IC50,[20],9.1 µM
same,Activity,[21],Non-Toxic
same,IC50,[22],> 10 µM
same,Activity,[23],Non-Toxic
same,inhibition,[24],> 50%
same,Activity,[25],39%
same,inhibition,[26],> 50%
same,Cmax,[27],0.754 µM
same,Activity,[28],25%
same,half-life,[29],3.9 h
same,inhibition,[30],> 50%
same,Activity,[31],Non-Toxic
same,Activity,[32],inactive
same,clearance,[33],3.4 mL/min/kg
same,Vd,[34],2.4 L/kg
same,Activity,[35],71%
same,IC50,[36],≥ 14 µM
same,Drug metabolism,[37],Metabolite_Detected
same,bioavailability,[38],86%
same,Drug metabolism,[39],Metabolite_Detected
same,Papp A→B,[40],6.6 ×10⁻⁶ cm/s
same,CL free,[41],4 mL/min/kg
same,CL,[42],< 20%
same,Vd,[43],1.2 L/kg
same,Activity,[44],Non-Toxic

# — ChEMBL document CHEMBL4837257, “Discovery of the Oxadiazine FRM-024: A Potent CNS-Penetrant Gamma Secretase Modulator” (J Med Chem, 2021)
